How the values were obtained:
[1] = test system: primary human ciliary muscle cells (h-CM); test: Total prostaglandin (PG) release from primary h-CM cells (EIA); format: cell-based; conditions: 1 hour at 37° C., class symbols (in μM)
Description: BK agonist compounds of Formula 1 were evaluated for the ability to induce prostaglandin (PG) release from primary human ciliary muscle cells (h-CM). Briefly, h-CM cells were grown to confluence in FNC-coated 24-well culture plates and serum-starved (0.8% FBS) for 24 hours prior to the experiment. Cells were stimulated with a 9-pt concentration-response (0.1 nM-10 μM) of bradykinin or BK agonist for 1 hour at 37° C. with subsequent sample recovery and processing for total PG measurement. Total PG measurement was determined using a total Prostaglandin Screening EIA kit (cat#514012) purchased from Cayman Chemical (Ann Arbor, Mich.). The assay was conducted according to the package insert from the manufacturer.

[2] = biological target: T1, BK receptors in human ciliary muscle cells (h-CM) (Homo sapiens, UniProt P30411); test: Functional assay measuring [Ca2+]i mobilization (FLIPR) in h-CM cells; format: cell-based; conditions: class symbols (in μM), read-out: CaM (EC50)
T1 construct: h-CM cells expressing BK receptors were seeded; endogenous in cells; host or cells: human ciliary muscle (h-CM) cells
T1 sequence (P30411 1-391): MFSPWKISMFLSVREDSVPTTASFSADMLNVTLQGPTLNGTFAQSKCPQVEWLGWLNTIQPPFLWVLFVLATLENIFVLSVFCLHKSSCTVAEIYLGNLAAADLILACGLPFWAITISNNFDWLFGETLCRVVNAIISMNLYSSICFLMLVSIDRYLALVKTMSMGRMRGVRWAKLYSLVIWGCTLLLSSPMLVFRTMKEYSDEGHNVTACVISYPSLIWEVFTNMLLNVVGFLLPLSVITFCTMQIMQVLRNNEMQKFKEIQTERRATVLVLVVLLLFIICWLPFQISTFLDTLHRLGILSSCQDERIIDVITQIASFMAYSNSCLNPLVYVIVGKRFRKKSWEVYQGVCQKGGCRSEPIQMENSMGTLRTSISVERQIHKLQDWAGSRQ
Description: On the day of the experiment, media was removed, cells were rinsed and 50 μL of serum-free media added. One vial of FLIPR Calcium Assay Kit dye was reconstituted in 50 mL of a FLIPR buffer consisting of Hank's Balanced Salt Solution (HBSS), 20 mM HEPES, and 2.5 mM probenecid, pH 7.4. Cells were loaded with the calcium-sensitive dye by addition of an equal volume (50 μL) to each well of the 96-well plate and incubated with dye for 1 h at 23° C. […] After this time, the test compound plate and cell plate were placed in a Fluorescence Imaging Plate Reader (FLIPR-Tetra®) instrument (Molecular Devices/MDSPharma, Sunnyvale, Calif.). At the beginning of an experimental run, a signal test was performed to check the basal fluorescence signal from the dye-loaded cells and the uniformity of the signal across the plate. […] An aliquot (25 μL) of the test compound was added to the existing 100 μL dye-loaded cells at a dispensing speed of 50 μL/sec. Intracellular calcium mobilization was measured by monitoring real-time changes in cellular fluorescence upon test compound addition. Fluorescence data were collected in real-time at 1.0 sec intervals for the first 60 seconds and at 6.0 second intervals for an additional 120 seconds. Baseline fluorescence readings were normalized across the plate and background-corrected from negative control wells. […] EC50 values were determined by 4-parameter nonlinear curve fitting of the concentration-response curve. Calibration of the instrument was performed using manufacturer's standard procedures.

[3] = biological target: T2, recombinant human bradykinin B2 receptor (Homo sapiens, UniProt P30411); test: [3H]-BK competition radioligand binding to human cloned B2 receptor (CHO cell membranes); conditions: 0.2 nM [3H]-bradykinin, CHO membranes, 60 min 23° C.; mean ± SEM or single value; Ki from IC50 by Cheng-Prusoff; read-out: [3H]-BK Binding to Human Cloned B2 Receptor (Ki)
T2 construct: expressed in transfected cells; host or cells: Chinese hamster ovary (CHO) cells, membrane homogenates
T2 sequence (P30411 1-391): T1 sequence (P30411 1-391)
Description: Chinese hamster ovary (CHO) cell membrane homogenates (2.5 μg protein) expressing the recombinant human bradykinin B2 receptor were incubated for 60 min at 23° C. with 0.2 nM [^3H]-bradykinin (95.5 Ci/mmole, PerkinElmer) in the absence or presence of the test compound in a buffer containing 50 mM Tris/HCl (pH 7.4), 0.2 g/L 1-10-phenanthroline and 0.1% BSA. All reagent and test compound additions to the assay plates were made using Biomek 3000 robotic workstations (Beckman Instruments, Fullerton, Calif.). Nonspecific binding was determined in the presence of 1 μM unlabeled bradykinin. Following the incubation, the assay was terminated by rapid filtration under vacuum through glass fiber filters (GF/C, PerkinElmer) presoaked with 0.3% polyethyleneimine and rinsed several times with an ice-cold 50 mM Tris-HCl buffer using a 96-sample cell harvester (Tomtec). The filters were air-dried and the radioactivity counted in a beta-scintillation counter (Topcount, PerkinElmer) using a scintillation cocktail (Microscint 20, PerkinElmer) (Sharif and Whiting, Neurochem. Int. 18: 89-96, 1991). Competitive binding inhibition curves were generated using a 7-point concentration—response of test compound in duplicate. Bradykinin peptide was also tested as an internal control in the assay. The data were analyzed using nonlinear, iterative curve-fitting to obtain the potency and intrinsic activities of the test agents as previously described (Sharif et al. J. Pharmacol. Exp. Ther. 286: 1094-1102, 1998; Sharif et al. Invest Ophthalmol. Vis. Sci. 39:2562-2571, 1998; Kelly et al. J. Pharmacol. Exp. Ther. 304: 238-245, 2003). Determined IC50 values were converted to Ki values using the standard Cheng-Prusoff equation.

Structure (SMILES) | EC50 ([1]; Homo sapiens, 1 h) | EC50 [2] | Ki [3] | EC50 [1]
COCCNC(=O)c1ccc(CCC(=O)NCC(=O)N(C)c2ccc(Cl)c(COc3cccc4c3nc(OC)n4Cc3ccccn3)c2Cl)cc1 [Compound 1, 4-(3-((2-((2,4-dichloro-3-(((2-methoxy-1-(pyridin-2-ylmethyl)-1H-benzo[d]imidazol-4-yl)oxy)methyl)phenyl)(methyl)amino)-2-oxoethyl)amino)-3-oxopropyl)-N-(2-methoxyethyl)benzamide] | < 0.1 µM | < 0.1 µM | 54 nM | –
COC(=O)Nc1ccc(CCC(=O)NCC(=O)N(C)c2ccc(Cl)c(COc3cccc4c3nc(OC)n4Cc3ccccn3)c2Cl)cn1 [Compound 2, methyl (5-(3-((2-((2,4-dichloro-3-(((2-methoxy-1-(pyridin-2-ylmethyl)-1H-benzo[d]imidazol-4-yl)oxy)methyl)phenyl)(methyl)amino)-2-oxoethyl)amino)-3-oxopropyl)pyridin-2-yl)carbamate] | < 0.1 µM | < 0.1 µM | 101 nM | –
COc1nc2c(OCc3c(C)ccc(N(C)C(=O)CNC(=O)CCc4cnc5[nH]c(=O)oc5c4)c3C)cccc2n1Cc1ccccn1 [Compound 3, N-(2-((3-(((2-methoxy-1-(pyridin-2-ylmethyl)-1H-benzo[d]imidazol-4-yl)oxy)methyl)-2,4-dimethylphenyl)(methyl)amino)-2-oxoethyl)-3-(2-oxo-2,3-dihydrooxazolo[4,5-b]pyridin-6-yl)propanamide] | > 1 µM | < 0.1 µM | 273 nM | –
COC(=O)Nc1ccc(CCC(=O)NCC(=O)N(C)c2ccc(C)c(COc3cccc4c3nc(OC)n4Cc3ccccn3)c2C)cn1 [Compound 4, methyl (5-(3-((2-((3-(((2-methoxy-1-(pyridin-2-ylmethyl)-1H-benzo[d]imidazol-4-yl)oxy)methyl)-2,4-dimethylphenyl)(methyl)amino)-2-oxoethyl)amino)-3-oxopropyl)pyridin-2-yl)carbamate] | > 1 µM | 0.1 to 1 µM | 158 nM | –
CNC(=O)N1CCN(CCC(=O)NCC(=O)N(C)c2ccc(Cl)c(COc3cccc4c3nc(OC)n4Cc3ccccn3)c2Cl)CC1 [Compound 7, 4-(3-((2-((2,4-dichloro-3-(((2-methoxy-1-(pyridin-2-ylmethyl)-1H-benzo[d]imidazol-4-yl)oxy)methyl)phenyl)(methyl)amino)-2-oxoethyl)amino)-3-oxopropyl)-N-methylpiperazine-1-carboxamide] | < 0.1 µM | < 0.1 µM | 118 ± 2 nM | –
CNC(=O)C1CCN(CC(=O)NCC(=O)N(C)c2ccc(Cl)c(COc3cccc4c3nc(OC)n4Cc3ccccn3)c2Cl)CC1 [Compound 13, 1-(2-((2-((2,4-dichloro-3-(((2-methoxy-1-(pyridin-2-ylmethyl)-1H-benzo[d]imidazol-4-yl)oxy)methyl)phenyl)(methyl)amino)-2-oxoethyl)amino)-2-oxoethyl)-N-methylpiperidine-4-carboxamide] | > 1 µM | 0.1 to 1 µM | – | –
CNC(=O)c1ccc(CCC(=O)NCC(=O)N(C)c2ccc(Cl)c(COc3cccc4c3nc(OC)n4Cc3ccccn3)c2Cl)nc1 [Compound 43, 6-(3-((2-((2,4-dichloro-3-(((2-methoxy-1-(pyridin-2-ylmethyl)-1H-benzo[d]imidazol-4-yl)oxy)methyl)phenyl)(methyl)amino)-2-oxoethyl)amino)-3-oxopropyl)-N-methylnicotinamide] | < 0.1 µM | < 0.1 µM | – | –
CCOC(=O)COc1cc(C)nc2c(OCc3c(Cl)ccc(N(C)C(=O)CNC(=O)CCc4ccc(C(=O)NC)nc4)c3Cl)cccc12 [Compound 46, ethyl 2-((8-((2,6-dichloro-3-(N-methyl-2-(3-(6-(methylcarbamoyl)pyridin-3-yl)propanamido)acetamido)benzyl)oxy)-2-methylquinolin-4-yl)oxy)acetate] | < 0.1 µM | 0.1 to 1 µM | – | –
CNC(=O)c1ccc(CCC(=O)NCC(=O)N(C)c2ccc(Cl)c(COc3cccc4c(OCc5ccccc5F)cc(C)nc34)c2Cl)cn1 [Compound 47, 5-(3-((2-((2,4-dichloro-3-(((4-((2-fluorobenzyl)oxy)-2-methylquinolin-8-yl)oxy)methyl)phenyl)(methyl)amino)-2-oxoethyl)amino)-3-oxopropyl)-N-methylpicolinamide] | < 0.1 µM | 0.1 to 1 µM | – | –
CNC(=O)c1ccc(CCC(=O)NCC(=O)N(C)c2ccc(Cl)c(COc3cccc4c(OCc5cn(C)cn5)cc(C)nc34)c2Cl)cn1 [Compound 48, 5-(3-((2-((2,4-dichloro-3-(((2-methyl-4-((1-methyl-1H-imidazol-4-yl)methoxy)quinolin-8-yl)oxy)methyl)phenyl)(methyl)amino)-2-oxoethyl)amino)-3-oxopropyl)-N-methylpicolinamide] | 0.1 to 1 µM | < 0.1 µM | – | –
COc1nc2c(OCc3c(Cl)ccc(N(C)C(=O)CNC(=O)CN4CCC(NC(C)=O)C4)c3Cl)cccc2n1Cc1ccccn1 (stereo not drawn) [Compound 66] | 0.1 to 1 µM | < 0.1 µM | – | –
COc1nc2c(OCc3c(Cl)ccc(N(C)C(=O)CNC(=O)CCc4ccc(N)nc4)c3Cl)cccc2n1Cc1ccccn1 [Compound 67] | > 1 µM | < 0.1 µM | – | –
COc1nc2c(OCc3c(Cl)ccc(N(C)C(=O)CNC(=O)CCCN4CCNC(=O)C4)c3Cl)cccc2n1Cc1ccccn1 [Compound 72] | > 1 µM | < 0.1 µM | – | –
CNC(=O)c1ccc(CCC(=O)NCC(=O)N(C)c2ccc(Cl)c(COc3cccc4c3nc(OC)n4Cc3cn(C)cn3)c2Cl)cc1 [Compound 78, 4-(3-((2-((2,4-dichloro-3-(((2-methoxy-1-((1-methyl-1H-imidazol-4-yl)methyl)-1H-benzo[d]imidazol-4-yl)oxy)methyl)phenyl)(methyl)amino)-2-oxoethyl)amino)-3-oxopropyl)-N-methylbenzamide] | < 0.1 µM | < 0.1 µM | – | –
COc1nc2c(OCc3c(Cl)ccc(N(C)C(=O)CNC(=O)CCc4ccc(C(=O)NCCO)nc4)c3Cl)cccc2n1Cc1cn(C)cn1 [Compound 85] | < 0.1 µM | < 0.1 µM | – | –
CNC(=O)c1ccc(CCC(=O)NCC(=O)N(C)c2ccc(Cl)c(COc3cccc4c3nc(OC)n4Cc3cn(C)cn3)c2Cl)cn1 [Compound 86] | < 0.1 µM | < 0.1 µM | – | –
CNC(=O)c1ccc(CCC(=O)NCC(=O)N(C)c2ccc(Cl)c(COc3cccc4c(OCc5cn(C)cn5)cc(C)nc34)c2Cl)cn1 [Compound 87] | – | 0.1 to 1 µM | – | < 0.1 µM

Reference: patent US8252793B2, “Bradykinin receptor agonists and uses thereof to treat ocular hypertension and glaucoma” (Alcon Research, Ltd., priority 2010, dated 2012)
